Results taken from patent US5744492A, “Method for inhibiting angiogenesis” (United States of America, priority 1994, dated 1998).

Key:
[1] = test system: HUVECs; assay: bFGF-stimulated HUVEC growth in low serum (1% FCS), crystal violet; format: cell-based; details: Homo sapiens, bFGF 10 ng/ml
Experimental: (§1) Human umbilical vein endothelial cells (H 930) were generously supplied by Dr. Tom Maciag, American Red Cross (Gaithersburg, Md., USA) and were used between passages 9 and 14 to avoid senescence. HUVECs were grown on fibronectin-coated tissue culture plastic (200 μg/150 mm dish) in complete medium (Medium 199 (M-199) containing 5 U/mL preservative-free heparin, 25.5 μg/mL ECGS, 10% fetal bovine serum and 100 U/mL penicillin, 100 μg/mL streptomycin, and 0.25 μg/mL fungizone).
Growth inhibition of HUVECs by compound 1 was measured by crystal violet nuclear stain. Briefly, 50,000 cells were seeded per well in 24 well plates using complete medium in the presence of increasing concentrations of compound 1 (0.01-10 μM) or DMS0 vehicle control (0.1%) and cultures were incubated for 24-120 hours. […] Optical density of the eluted samples was determined at 540 nm and the results were expressed as percent of DMSO control cell growth. Data are expressed as percentage of control value and are presented as mean±SEM (n=3).
To evaluate the effect of bFGF on HUVECs growth, cells were plated in low serum medium (1% FCS) in the presence of 10 ng/ml of bFGF and increasing concentrations of compound 1. At the indicated time, cells were fixed, stained, and quantitated as described above.

[2] = test system: HUVECs; assay: HUVEC motility (modified Boyden chamber chemotaxis); format: cell-based, human; details: 18 hr preincubation
Experimental: as §1
A modified Boyden chamber system was used to determine whether compound 1 could modulate the chemotactic stimulation of endothelial cells by fibronectin, laminin, type IV collagen or thrombospondin. The particular system used has been described for tumor cell motility. See, Minniti, et al., J. Biol. Chem. 267:9000-9004 (1992). Modifications were made as to cell number, membrane pore size, and time of incubation were tested to determine optimal conditions for the HUVECs.
HUVECs were pretreated as described above for adhesion and resuspended at 2×10^6 cells/mL in M-199 containing 0.1% bovine serum albumin. Cells were seeded in the upper compartment of the chamber separated from the lower compartment by a gelatin-coated Nucleopore filter with 8μ pores. Laminin (100 μg/mL), fibronectin (30 μg/mL), type IV collagen (100 μg/mL) or thrombospondin (20 μg/mL) were diluted from stock solutions into control medium (M-199 plus 0.1% BSA) and were used as chemoattractants in the lower chamber. HUVECs were incubated with DMSO control (0.1%) or compound 1 (0.1-10 μM) for 18 hr prior to the motility assay. Compound 1 and DMSO were maintained with the cells throughout the experiment. Assays were incubated at 37° C. for 2 hours after which the filters were removed, fixed, and stained. Cell migration was quantited by counting five high power fields in triplicate pellets of migrated cells. Results are expressed as percentage of control cell migration (x±SEM, n=3).

SMILES: NC(=O)c1nnn(Cc2cc(Cl)c(C(=O)c3ccc(Cl)cc3)c(Cl)c2)c1N [Compound 1, 5-amino-1-(4-(4-chlorobenzoyl)-3,5-dichlorobenzyl)1,2,3-triazole-4-carboxamide]
- inhibition at 10 µM ([1]; 72 h, 3 days from seeding, P2<0.01): 25%
- inhibition at 10 µM ([1]; 120 h, 5 days from seeding, P2<0.005): 45%
- inhibition of HUVEC motility towards type IV collagen (in words) ([2]; 1 μM, P2, 0.018): statistically significant dose-dependent inhibition
- inhibition of HUVEC motility towards laminin (in words) ([2]; 1 μM, P2<0.009): statistically significant dose-dependent inhibition
- inhibition of HUVEC motility towards all attractants (fibronectin, laminin, type IV collagen and thrombospondin) (in words) ([2]; 10 μM, p2<0.001): statistically significant dose-dependent inhibition
